Reference: US20060040390A1, “Device, method, system, and program for intelligent in vivo cell-level chemical or genetic material delivery” (priority 2004, published 2006)

How the values were obtained:
[1] = test system: neuroblastoma (B104 cells) xenografted in nude mice; experiment: In vivo tumor study, B104 neuroblastoma xenografted in nude mice
Source text: Nude mice (seven weeks old, female) are used to test the effect of paclitaxel in tumor progression. […] Tumor growth is monitored daily. Mice are then randomized and treatments are initiated. […] Measurements of tumor volume are taken using calipers, every day post treatment for a total of 25 days.

B104 cells [2] = test system: B104 cells
Method: The B104 cells are a rat neuroblastoma line that expresses p75 receptors (p75^+). The 4-3.6 cells are B104 cells stably transfected with human TrkA cDNA (p75^+, TrkA^+).
Therefore, tested is whether a single bolus of paclitaxel is an effective cytotoxic agent. Cells ae exposed to the indicated concentration of paclitaxel for 30 minutes at 4° C. Then, cells are plated in a 96-well plate (Falcon); this group represents treatment with paclitaxel present in a constant manner. The remaining cells are washed free of excess paclitaxel prior to plating; this group represents a single exposure to paclitaxel. […] Optical density readings of MTT are done in an EIA Plate Reader model 2550 (Bio-Rad) at 595 nm.
Paclitaxel is lipophilic and readily penetrates the cell membrane. […] Tested is whether a single short term exposure to paclitaxel can be effective in killing neuroblastoma B104 cells. These assays are done at 4°
The mAbs purpose is purely for target binding.

[3] = test system: cells that do not express p75; experiment: Selectivity of paclitaxel-MC192 on cells that do not express p75; type: cell-based
4-3.6 cells = experiment: In vitro survival assay with caspase inhibitor, serum-withdrawal model, 4-3.6 cells; type: cell-based, rat; conditions: ~48 hrs
Source text: (§1) 4-3.6 cells are placed in serum free media (SFM, PFHM-II, GIBCO, Toronto), where they undergo apoptosis (serum-withdrawal model).

B104 cells [4] = experiment: In vitro survival assay with caspase inhibitor, B104 cells that do not express TrkA; type: cell-based, rat; conditions: B104 cells (no TrkA), serum free media
Method: as §1
Cells are then cultured for ~48 hrs. Cell growth/survival is calculated relative to 5% serum (standardized to 100%). Addition of serum protects cells in SFM from death.
Cell survival is measured by quantitative tetrazolium salt reagent (MTT, Sigma) and optical density (OD) readings as described [Maliartchouk, 1997]. n=3-6.
Testing 4-3.6 Cell Survival (MTT, % of serum control). Serum free media 0.+−. 4 5%. Serum 100.+−. 2 20 nM zVAD−2.+−. 3 VAD-5C3 conjugate (20 nM VAD equivalent, 1 nM 41.+−. 1 5C3). […] Typicaly, […] mAb 5C3 alone (unconjugated) does protect 4-3.6 cells in SFM to ~10%, which is a much lower degree of protection than equimolar doses of the VAD-5C3 conjugate.

KB-V cells = experiment: cells
[5] = test system: mouse fibroblasts stably transfected with IGF-R; conditions: 72 h

Q: What does the source list for `CC(=O)O[C@H]1C(=O)[C@@]2(C)[C@H]([C@H](OC(=O)c3ccccc3)[C@]3(O)C[C@H](OC(=O)[C@H](O)[C@@H](NC(=O)c4ccccc4)c4ccccc4)C(C)=C1C3(C)C)[C@]1(OC(C)=O)CO[C@@H]1C[C@@H]2O` [paclitaxel]?
A: antitumor activity, tumor growth ([1]; nude mice, five IP injections every two days, versus control (HBSS)): not able to do so; efficacy of free drug at the conjugate's effective dose ([1]; ~3.5 nM): not effective at this dose; cytotoxic effect, single exposure versus constant presence (B104 cells [2]): generally the same whether the drug is present in the culture throughout or after a single exposure; cytotoxicity, constant versus single dose (B104 cells [2]; rat, 48 h): the same after 48 hours whether a constant or a single dose is given; cytotoxicity on cells that do not express p75 [3]: dose-dependent cytotoxicity

Q: What does the source list for “benzoic acid-Valine-Alanine-Aspartic acid-O-methyl-fluoromethyl-Iketone peptide [zVAD]”?
A: protection of cells in SFM (4-3.6 cells): does not protect cells; protection of B104 cells from death (B104 cells [4]): Neither 20 nM zVAD nor VAD-5c3 conjugate afford protection

Q: How did the “cytotoxicity on multidrug resistant KB-V cells compared to sensitive KB cells” value (KB-V cells) turn out when `COc1cccc2c1C(=O)c1c(O)c3c(c(O)c1C2=O)C[C@@](O)(C(=O)CO)C[C@@H]3O[C@H]1C[C@H](N)[C@H](O)[C@H](C)O1` [Doxorubicin] was run?
A: The value was “inactive on KB-V cells unless Verapamil was added”.

Q: What about the IC50 (KB-V cells; Homo sapiens, KBV, 72 h, read-out: IC50 ± SEM) of the same compound?
A: Its IC50 is over 320 nM.

Q: And the “cytotoxicity with or without excess antibody” value [5]?
A: The value was “the same cytotoxicity whether excess of mig or α-IR3 is present or not”.
